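Values below derive from 48-hour exposures of cells grown in 96-well plates, with endpoints linearly interpolated between the two concentrations bracketing the appropriate inhibition level. TGI is the concentration that stops growth completely.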
Assays:
Test in all cases: growth of human tumour cells (NCI), 48 h
SK-MEL-5 melanoma = system: SK-MEL-5 melanoma
SR leukemia = system: SR leukemia
M14 melanoma = system: M14 melanoma
NCI-H23 lung = system: NCI-H23 lung
OVCAR-4 ovarian = system: OVCAR-4 ovarian
MDA-N = system: MDA-N
MOLT-4 leukemia = system: MOLT-4 leukemia
BT-549 breast = system: BT-549 breast
SNB-19 CNS = system: SNB-19 CNS
UO-31 renal = system: UO-31 renal
NCI/ADR-RES ovarian = system: NCI/ADR-RES ovarian
RPMI-8226 leukemia = system: RPMI-8226 leukemia
U251 CNS = system: U251 CNS
HT29 colon = system: HT29 colon
NCI-H460 lung = system: NCI-H460 lung
SF-539 CNS = system: SF-539 CNS
SW-620 colon = system: SW-620 colon
OVCAR-8 ovarian = system: OVCAR-8 ovarian
SN12C renal = system: SN12C renal
A549 NSCLC = system: A549 NSCLC
DU-145 prostate = system: DU-145 prostate
KM12 colon = system: KM12 colon
MCF7 breast = system: MCF7 breast
HL-60(TB) leukemia = system: HL-60(TB) leukemia
SK-MEL-2 melanoma = system: SK-MEL-2 melanoma
SF-268 CNS = system: SF-268 CNS
HCT-116 colon = system: HCT-116 colon
MDA-MB-435 = system: MDA-MB-435
K-562 leukemia = system: K-562 leukemia
MDA-MB-231 breast = system: MDA-MB-231 breast
HCC-2998 colon = system: HCC-2998 colon
OVCAR-3 ovarian = system: OVCAR-3 ovarian
UACC-62 melanoma = system: UACC-62 melanoma
ACHN renal = system: ACHN renal
TK-10 renal = system: TK-10 renal
COLO 205 colon = system: COLO 205 colon
IGROV1 ovarian = system: IGROV1 ovarian
SK-OV-3 ovarian = system: SK-OV-3 ovarian
786-0 renal = system: 786-0 renal
OVCAR-5 ovarian = system: OVCAR-5 ovarian
NCI-H226 lung = system: NCI-H226 lung
CCRF-CEM leukemia = system: CCRF-CEM leukemia
LOX IMVI melanoma = system: LOX IMVI melanoma
EKVX NSCLC = system: EKVX NSCLC
PC-3 prostate = system: PC-3 prostate
A498 renal = system: A498 renal
SK-MEL-28 melanoma = system: SK-MEL-28 melanoma
SF-295 CNS = system: SF-295 CNS
HOP-92 NSCLC = system: HOP-92 NSCLC
HS 578T breast = system: HS 578T breast
UACC-257 melanoma = system: UACC-257 melanoma
CAKI-1 renal = system: CAKI-1 renal
NCI-H522 lung = system: NCI-H522 lung
HCT-15 colon = system: HCT-15 colon

What does the source list for `COc1cc(C2S/C(=C/c3ccccc3)C(=O)N2c2cccc(Cl)c2)cc(OC)c1OC` (centres undefined)?
TGI (SK-MEL-5 melanoma): > 100 µM; TGI (SR leukemia): 83.3 µM; TGI (M14 melanoma): > 100 µM; TGI (NCI-H23 lung): > 100 µM; TGI (OVCAR-4 ovarian): > 100 µM; TGI (MDA-N): > 100 µM; TGI (MOLT-4 leukemia): > 100 µM; TGI (BT-549 breast): 68.4 µM; TGI (SNB-19 CNS): > 100 µM; TGI (UO-31 renal): > 100 µM; TGI (NCI/ADR-RES ovarian): > 100 µM; TGI (RPMI-8226 leukemia): > 100 µM; TGI (U251 CNS): > 100 µM; TGI (HT29 colon): > 100 µM; TGI (NCI-H460 lung): > 100 µM; TGI (SF-539 CNS): > 100 µM; TGI (SW-620 colon): > 100 µM; TGI (OVCAR-8 ovarian): > 100 µM; TGI (SN12C renal): > 100 µM; TGI (A549 NSCLC): > 100 µM; TGI (DU-145 prostate): 86.8 µM; TGI (KM12 colon): > 100 µM; TGI (MCF7 breast): > 100 µM; TGI (HL-60(TB) leukemia): > 100 µM; TGI (SK-MEL-2 melanoma): > 100 µM; TGI (SF-268 CNS): > 100 µM; TGI (HCT-116 colon): > 100 µM; TGI (MDA-MB-435): 57.8 µM; TGI (K-562 leukemia): > 100 µM; TGI (MDA-MB-231 breast): > 100 µM; TGI (HCC-2998 colon): > 100 µM; TGI (OVCAR-3 ovarian): > 100 µM; TGI (UACC-62 melanoma): > 100 µM; TGI (ACHN renal): > 100 µM; TGI (TK-10 renal): > 100 µM; TGI (COLO 205 colon): > 100 µM; TGI (IGROV1 ovarian): > 100 µM; TGI (SK-OV-3 ovarian): > 100 µM; TGI (786-0 renal): > 100 µM; TGI (OVCAR-5 ovarian): > 100 µM; TGI (NCI-H226 lung): > 100 µM; TGI (CCRF-CEM leukemia): 73.4 µM; TGI (LOX IMVI melanoma): 55.1 µM; TGI (EKVX NSCLC): > 100 µM; TGI (PC-3 prostate): > 100 µM; TGI (A498 renal): > 100 µM; TGI (SK-MEL-28 melanoma): > 100 µM; TGI (SF-295 CNS): > 100 µM; TGI (HOP-92 NSCLC): > 100 µM; TGI (HS 578T breast): > 100 µM; TGI (UACC-257 melanoma): 81.8 µM; TGI (CAKI-1 renal): > 100 µM; TGI (NCI-H522 lung): 41.7 µM; TGI (HCT-15 colon): > 100 µM

Reference: PubChem BioAssay (NCI)
